# Reference: ChEMBL document CHEMBL2062477, “Dual-Specificity Phosphatase CDC25A/B Inhibitor Identified from a Focused Library with Nonelectrophilic Core Structure” (ACS Med Chem Lett, 2012)
# Legend:
# [1] = target: T1, M-phase inducer phosphatase 1 (Homo sapiens, UniProt P30304); assay: Inhibition of CDC25A
# T1 sequence (P30304 whole entry): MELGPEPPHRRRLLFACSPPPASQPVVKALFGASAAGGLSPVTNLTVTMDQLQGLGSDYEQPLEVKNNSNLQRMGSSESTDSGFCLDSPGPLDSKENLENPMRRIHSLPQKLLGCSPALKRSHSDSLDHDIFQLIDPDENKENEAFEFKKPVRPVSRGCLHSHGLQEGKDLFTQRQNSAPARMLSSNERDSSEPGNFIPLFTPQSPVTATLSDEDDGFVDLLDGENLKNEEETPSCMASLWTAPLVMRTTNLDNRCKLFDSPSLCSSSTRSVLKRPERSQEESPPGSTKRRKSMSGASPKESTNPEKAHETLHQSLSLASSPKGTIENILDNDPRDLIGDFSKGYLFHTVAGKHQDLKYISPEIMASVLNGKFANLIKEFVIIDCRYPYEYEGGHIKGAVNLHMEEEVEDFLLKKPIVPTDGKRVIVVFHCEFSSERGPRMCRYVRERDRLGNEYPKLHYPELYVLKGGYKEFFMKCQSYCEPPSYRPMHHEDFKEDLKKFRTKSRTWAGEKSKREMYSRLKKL
# [2] = target: T2, M-phase inducer phosphatase 2 (Homo sapiens, UniProt P30305); assay: Inhibition of CDC25B
# T2 sequence (P30305 whole entry): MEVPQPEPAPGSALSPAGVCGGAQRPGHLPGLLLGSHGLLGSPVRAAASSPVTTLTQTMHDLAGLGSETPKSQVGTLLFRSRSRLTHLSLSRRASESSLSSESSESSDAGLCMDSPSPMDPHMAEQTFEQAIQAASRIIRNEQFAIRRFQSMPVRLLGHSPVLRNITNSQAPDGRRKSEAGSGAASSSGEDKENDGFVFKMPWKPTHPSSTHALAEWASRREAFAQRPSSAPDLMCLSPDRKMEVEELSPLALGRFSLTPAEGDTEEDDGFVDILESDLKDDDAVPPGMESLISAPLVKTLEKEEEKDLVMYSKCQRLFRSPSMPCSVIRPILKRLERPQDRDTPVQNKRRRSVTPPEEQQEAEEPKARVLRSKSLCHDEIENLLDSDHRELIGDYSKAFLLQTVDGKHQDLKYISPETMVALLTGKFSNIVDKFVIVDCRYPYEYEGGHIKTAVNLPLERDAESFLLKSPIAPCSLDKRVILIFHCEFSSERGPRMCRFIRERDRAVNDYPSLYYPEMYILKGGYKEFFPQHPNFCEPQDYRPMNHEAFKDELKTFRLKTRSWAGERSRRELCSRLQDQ
# [3] = target: T3, M-phase inducer phosphatase 3 (Homo sapiens, UniProt P30307); assay: Inhibition of CDC25C
# T3 sequence (P30307 whole entry): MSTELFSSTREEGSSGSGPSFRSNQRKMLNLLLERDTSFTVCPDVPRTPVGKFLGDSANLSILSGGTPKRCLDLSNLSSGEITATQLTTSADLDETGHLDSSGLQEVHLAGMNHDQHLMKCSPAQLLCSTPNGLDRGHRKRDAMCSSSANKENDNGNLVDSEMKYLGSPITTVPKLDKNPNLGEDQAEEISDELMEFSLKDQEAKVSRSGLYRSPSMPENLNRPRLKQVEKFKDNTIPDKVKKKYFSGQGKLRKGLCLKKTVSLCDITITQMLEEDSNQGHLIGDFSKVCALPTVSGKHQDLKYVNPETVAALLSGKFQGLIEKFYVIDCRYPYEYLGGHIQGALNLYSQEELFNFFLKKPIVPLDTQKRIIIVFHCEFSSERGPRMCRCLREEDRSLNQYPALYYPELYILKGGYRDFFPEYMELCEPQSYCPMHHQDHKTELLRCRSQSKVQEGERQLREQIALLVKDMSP
# [4] = target: Dual specificity protein phosphatase 3 (Homo sapiens, UniProt P51452); assay: Inhibition of VHR
# [5] = target: T4, Dual specificity protein phosphatase 1 (Homo sapiens, UniProt P28562); assay: Inhibition of MKP1
# T4 sequence (P28562 whole entry): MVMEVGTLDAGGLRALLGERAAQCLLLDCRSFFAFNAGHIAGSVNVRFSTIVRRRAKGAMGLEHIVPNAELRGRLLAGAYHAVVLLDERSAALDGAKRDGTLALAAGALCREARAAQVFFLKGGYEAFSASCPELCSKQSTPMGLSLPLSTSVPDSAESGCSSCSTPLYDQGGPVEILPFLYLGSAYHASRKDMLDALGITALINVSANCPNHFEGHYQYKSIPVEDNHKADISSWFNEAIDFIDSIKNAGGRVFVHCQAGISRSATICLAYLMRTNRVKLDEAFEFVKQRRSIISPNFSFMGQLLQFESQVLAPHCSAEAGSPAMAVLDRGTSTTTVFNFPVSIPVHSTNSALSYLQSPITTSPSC
# [6] = target: T5, Dual specificity protein phosphatase 6 (Homo sapiens, UniProt Q16828); assay: Inhibition of MKP3
# T5 sequence (Q16828 whole entry): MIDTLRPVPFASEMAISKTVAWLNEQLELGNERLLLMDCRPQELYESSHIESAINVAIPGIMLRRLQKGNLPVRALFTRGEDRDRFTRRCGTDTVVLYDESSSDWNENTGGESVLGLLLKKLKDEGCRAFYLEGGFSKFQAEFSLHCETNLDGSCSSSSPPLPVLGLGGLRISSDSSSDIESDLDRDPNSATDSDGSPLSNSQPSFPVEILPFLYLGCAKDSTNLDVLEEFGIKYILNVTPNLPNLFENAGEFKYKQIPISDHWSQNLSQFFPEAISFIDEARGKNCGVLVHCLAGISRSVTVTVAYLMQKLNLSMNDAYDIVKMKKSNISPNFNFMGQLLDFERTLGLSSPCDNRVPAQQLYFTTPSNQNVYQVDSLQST
# [7] = target: T6, Tyrosine-protein phosphatase non-receptor type 1 (Homo sapiens, UniProt P18031); assay: Inhibition of PTP1B
# T6 sequence (P18031 whole entry): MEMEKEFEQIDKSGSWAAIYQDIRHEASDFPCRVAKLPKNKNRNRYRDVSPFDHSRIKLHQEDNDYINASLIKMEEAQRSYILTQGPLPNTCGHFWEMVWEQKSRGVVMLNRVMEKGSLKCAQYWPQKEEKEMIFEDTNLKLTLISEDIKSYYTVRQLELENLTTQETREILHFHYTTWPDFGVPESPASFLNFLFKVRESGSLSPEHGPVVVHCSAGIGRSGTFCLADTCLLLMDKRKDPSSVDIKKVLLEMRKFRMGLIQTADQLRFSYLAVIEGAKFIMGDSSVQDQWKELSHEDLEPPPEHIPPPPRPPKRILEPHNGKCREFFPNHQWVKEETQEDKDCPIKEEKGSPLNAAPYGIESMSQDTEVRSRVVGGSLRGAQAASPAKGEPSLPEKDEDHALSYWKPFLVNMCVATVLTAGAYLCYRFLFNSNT
# HL-60 = assay: cells; conditions: Homo sapiens, HL-60, 48 h
# Sequence of Dual specificity protein phosphatase 3 (P51452 whole entry): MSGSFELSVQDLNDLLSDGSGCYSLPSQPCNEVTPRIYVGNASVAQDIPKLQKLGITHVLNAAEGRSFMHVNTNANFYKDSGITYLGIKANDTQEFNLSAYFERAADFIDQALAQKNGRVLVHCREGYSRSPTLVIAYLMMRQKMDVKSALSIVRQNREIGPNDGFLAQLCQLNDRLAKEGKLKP
SMILES,IC50 [1] [µM],IC50 [2] [µM],IC50 [3] [µM],IC50 [4] [µM],IC50 [5] [µM],IC50 [6] [µM],IC50 [7] [µM],IC50 (HL-60) [µM]
CCCCCCCCCCCCCCCC(NCc1cccc(OC)c1)=C1C(=O)OC(CO)C1=O (mixture of isomers),10.2,8.31,> 100,5.53,> 100,> 100,> 100,–
CCCCCCCCCCCCCCCC(NCc1ccccc1F)=C1C(=O)OC(CO)C1=O (mixture of isomers),12.6,–,47.1,8.93,> 100,> 100,> 100,–
CCCCCCCCCCCCCCCC(NCc1ccc(O)cc1)=C1C(=O)OC(CO)C1=O (mixture of isomers),6.86,4.23,44.1,9.93,> 100,> 100,68.1,–
CCCCCCCCCCCCCCCC(NCc1ccccc1OC)=C1C(=O)OC(CO)C1=O (mixture of isomers),19,12.1,> 100,6.6,> 100,> 100,> 100,–
CCCCCCCCCCCCCCCC(NCc1ccc(Cl)cc1)=C1C(=O)OC(CO)C1=O (mixture of isomers),6.25,5.52,> 100,3.63,> 100,> 100,> 100,–
CCCCCCCCCCCCCCCC(NCc1cccc(O)c1)=C1C(=O)OC(CO)C1=O (mixture of isomers),15.4,3.15,> 100,11.1,> 100,> 100,> 100,–
CCCCCCCCCCCCCCCC(NCc1ccccc1Cl)=C1C(=O)OC(CO)C1=O (mixture of isomers),12.3,13.5,> 100,10.2,> 100,> 100,> 100,–
CCCCCCCCCCCCCCCC(NCc1cccc(F)c1)=C1C(=O)OC(CO)C1=O (mixture of isomers),6.22,5.13,78.2,4.69,> 100,> 100,83.7,–
CCCCCCCCCCCCCCCC(NCc1ccccc1N(C)C)=C1C(=O)OC(CO)C1=O (mixture of isomers),8.5,5.75,> 100,5.19,> 100,> 100,> 100,–
CCCCCCCCCCCCCCCC(NCc1cccc(N(C)C)c1)=C1C(=O)OC(CO)C1=O (mixture of isomers),11.4,6.55,> 100,5.13,> 100,> 100,> 100,–
CCCCCCCCCCCCCCCC(NCc1ccc(F)cc1)=C1C(=O)OC(CO)C1=O (mixture of isomers),10.7,13.1,> 100,–,> 100,> 100,> 100,–
CCCCCCCCCCCCCCCC(NCc1cccc(Cl)c1)=C1C(=O)OC(CO)C1=O (mixture of isomers),> 100,> 100,> 100,1.43,> 100,> 100,> 100,12
CCCCCCCCCCCCCCCC(NCc1ccccc1C)=C1C(=O)OC(CO)C1=O (mixture of isomers),12.7,8.61,> 100,8.99,> 100,> 100,> 100,–
CCCCCCCCCCCCCCCC(NCc1ccc(OC)cc1)=C1C(=O)OC(CO)C1=O (mixture of isomers),11.7,23.8,> 100,6.77,> 100,> 100,> 100,–
CCCCCCCCCCCCCCCC(NCc1ccc(C)cc1)=C1C(=O)OC(CO)C1=O (mixture of isomers),7.35,3.33,56.7,2.68,> 100,> 100,> 100,19.1
CCCCCCCCCCCCCCCC(NCc1ccc(N(C)C)cc1)=C1C(=O)OC(CO)C1=O (mixture of isomers),8.67,6.23,> 100,12,> 100,> 100,> 100,10.9
